Source: patent publication USRE48335E1, “Polymyxin derivatives as antimicrobial compounds” (priority 2014, dated 2020)
In brackets after ≈: the same amount, converted by molar mass. Positions of bridges follow the written chain, without caps; N, C: chain ends. Non-standard residues stand in square brackets, D forms with d. Residues, ends and D or L forms follow the SMILES beside them. *: point of attachment. dNle = CCCC[C@@H](N)C(=O)O; Octanoyl = CCCCCCCC(=O)*; Dab = NCC[C@H](N)C(=O)O; Abu = CC[C@H](N)C(=O)O; Dap = NC[C@H](N)C(=O)O

Columns and labels:
Acinetobacter baumannii = system: Acinetobacter baumannii
Procedure, shortened: (§1)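 Minimum inhibitory concentrations come from CLSI-standard broth microdilution in cation-adjusted Mueller-Hinton broth.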

Enterobacter cloacae = system: Enterobacter cloacae
Procedure, shortened: as §1

Klebsiella pneumoniae = system: Klebsiella pneumoniae
Procedure, shortened: as §1

Pseudomonas aeruginosa = system: Pseudomonas aeruginosa
Procedure, shortened: as §1

A. baumannii ATCC 19606 = assay: In vivo efficacy in mouse blood infection model (neutropenic Swiss mice); conditions: compound, free base 4 mg/kg intravenously 2 h after inoculation, blood at 4 h
Procedure, shortened: (§2)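 Neutropenic Swiss mice (cyclophosphamide 150 mg/kg day −4, 100 mg/kg day −1, i.p.) infected i.v. with early log-phase bacteria; 4 mg/kg free base i.v. given 2 h post-inoculation. Blood CFU by cardiac puncture 4 h post-dose; Δlog10 CFU/mL treated versus saline controls.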

[1] = system: K. pneumoniae FADDI-KP032; assay: as above; conditions: compound, free base 4 mg/kg intravenously 2 h after inoculation, blood at 4 h
Procedure, shortened: as §2

P. aeruginosa ATCC 27853 = assay: as above; conditions: compound, free base 4 mg/kg intravenously 2 h after inoculation, blood at 4 h
Procedure, shortened: as §2

Row | SMILES | MIC (Acinetobacter baumannii) | Minimum inhibitory concentration, Ab A ATCC 17978 (Acinetobacter baumannii) | Minimum inhibitory concentration, Ab ATCC 19606 (Acinetobacter baumannii) | Minimum inhibitory concentration, Ab FADDI-AB034 (Acinetobacter baumannii) | Minimum inhibitory concentration, Ec FADDI-EC001 (Enterobacter cloacae) | Minimum inhibitory concentration, Ec FADDI-EC003 (Enterobacter cloacae) | Minimum inhibitory concentration, Ec FADDI-EC006 (Enterobacter cloacae) | MIC (Klebsiella pneumoniae) | Minimum inhibitory concentration, Pa ATCC 27853 (Pseudomonas aeruginosa) | Minimum inhibitory concentration, Pa FADDI-PA022 (Pseudomonas aeruginosa) | Minimum inhibitory concentration, Pa FADDI-PA025 (Pseudomonas aeruginosa) | Δ log (Treated-Control at 4 h) (A. baumannii ATCC 19606) | Δ log (Treated-Control at 4 h) [1] | Δ log (Treated-Control at 4 h) (P. aeruginosa ATCC 27853) | MIC (Pseudomonas aeruginosa)
1 | CCCCCCCC(=O)N[C@@H](CCN)C(=O)N[C@H](C(=O)N[C@H](CO)C(=O)N[C@H]1CCNC(=O)[C@H]([C@@H](C)O)NC(=O)[C@H](CCN)NC(=O)[C@H](CCN)NC(=O)[C@H]([C@@H](C)O)NC(=O)[C@@H](CCCC)NC(=O)[C@H](CCN)NC1=O)[C@@H](C)O [Compound 7] (Octanoyl-[Dab]T[dS][Dab][Dab][dNle]T[Dab][Dab]T; lactam 4-C) | 0.25 µg/mL (≈ 0.221 µM) | <0.125 µg/mL | 0.25 µg/mL (≈ 0.221 µM) | <0.125 µg/mL | 0.25 µg/mL (≈ 0.221 µM) | 0.25 µg/mL (≈ 0.221 µM) | 0.5 µg/mL (≈ 0.442 µM) | <0.125 µg/mL | 2 µg/mL (≈ 1.77 µM) | 4 µg/mL (≈ 3.54 µM) | >32 µg/mL | −2.87 log10 CFU/mL | −3.39 log10 CFU/mL | −0.61 log10 CFU/mL | 
2 | CCCCCCCC(=O)N[C@@H](CCN)C(=O)N[C@H](C(=O)N[C@@H](CCN)C(=O)N[C@H]1CCNC(=O)[C@H]([C@@H](C)O)NC(=O)[C@H](CCN)NC(=O)[C@H](CCN)NC(=O)[C@H]([C@@H](C)O)NC(=O)[C@@H](CC(C)C)NC(=O)[C@H](CCN)NC1=O)[C@@H](C)O [Compound 20] (Octanoyl-[Dab]T[Dab][Dab][Dab][dL]T[Dab][Dab]T; lactam 4-C) | 4 µg/mL (≈ 3.5 µM) | 4 µg/mL (≈ 3.5 µM) | 4 µg/mL (≈ 3.5 µM) | 2 µg/mL (≈ 1.75 µM) | <0.125 µg/mL | 0.5 µg/mL (≈ 0.437 µM) | <0.125 µg/mL | 0.25 µg/mL (≈ 0.219 µM) | 0.5 µg/mL (≈ 0.437 µM) | 0.5 µg/mL (≈ 0.437 µM) | >32 µg/mL | −1.86 log10 CFU/mL | −3.50 log10 CFU/mL | −2.13 log10 CFU/mL | 0.5 µg/mL (≈ 0.437 µM)
3 | CCCCCCCC(=O)N[C@@H](CCN)C(=O)N[C@H](C(=O)N[C@@H](CCN)C(=O)N[C@H]1CCNC(=O)[C@H]([C@@H](C)O)NC(=O)[C@H](CCN)NC(=O)[C@H](CCN)NC(=O)[C@H]([C@@H](C)O)NC(=O)[C@@H](Cc2ccccc2)NC(=O)[C@H](CCN)NC1=O)[C@@H](C)O [Compound 22] (Octanoyl-[Dab]T[Dab][Dab][Dab][dF]T[Dab][Dab]T; lactam 4-C) | 1 µg/mL (≈ 0.849 µM) | 1 µg/mL (≈ 0.849 µM) | 1 µg/mL (≈ 0.849 µM) | 0.5 µg/mL (≈ 0.425 µM) | <0.125 µg/mL | <0.125 µg/mL | 0.25 µg/mL (≈ 0.212 µM) | 0.5 µg/mL (≈ 0.425 µM) | 1 µg/mL (≈ 0.849 µM) | 1 µg/mL (≈ 0.849 µM) | 16 µg/mL (≈ 13.6 µM) | −1.50 log10 CFU/mL | −3.11 log10 CFU/mL | −3.10 log10 CFU/mL | 1 µg/mL (≈ 0.849 µM)
4 | CCCCCCCC(=O)N[C@@H](CCN)C(=O)N[C@H](C(=O)N[C@@H](CCN)C(=O)N[C@H]1CCNC(=O)[C@H]([C@@H](C)O)NC(=O)[C@H](CCN)NC(=O)[C@H](CCN)NC(=O)[C@H](C(C)C)NC(=O)[C@@H](CC(C)C)NC(=O)[C@H](CCN)NC1=O)[C@@H](C)O [Compound 23] (Octanoyl-[Dab]T[Dab][Dab][Dab][dL]V[Dab][Dab]T; lactam 4-C) | 0.5 µg/mL (≈ 0.438 µM) | 0.5 µg/mL (≈ 0.438 µM) | 0.5 µg/mL (≈ 0.438 µM) | 0.25 µg/mL (≈ 0.219 µM) | <0.125 µg/mL | <0.125 µg/mL | 0.25 µg/mL (≈ 0.219 µM) | <0.125 µg/mL | 1 µg/mL (≈ 0.876 µM) | 1 µg/mL (≈ 0.876 µM) | 4 µg/mL (≈ 3.5 µM) | −2.82 log10 CFU/mL | −3.88 log10 CFU/mL | −2.48 log10 CFU/mL | 1 µg/mL (≈ 0.876 µM)
5 | CCCCCCCC(=O)N[C@@H](CCN)C(=O)N[C@H](C(=O)N[C@@H](CCN)C(=O)N[C@H]1CCNC(=O)[C@H]([C@@H](C)O)NC(=O)[C@H](CCN)NC(=O)[C@H](CCN)NC(=O)[C@H]([C@@H](C)O)NC(=O)[C@@H](CCCC)NC(=O)[C@H](CCN)NC1=O)[C@@H](C)O [Compound 24] (Octanoyl-[Dab]T[Dab][Dab][Dab][dNle]T[Dab][Dab]T; lactam 4-C) | 1 µg/mL (≈ 0.875 µM) | 1 µg/mL (≈ 0.875 µM) | 1 µg/mL (≈ 0.875 µM) | 1 µg/mL (≈ 0.875 µM) | <0.125 µg/mL | <0.125 µg/mL | 0.25 µg/mL (≈ 0.219 µM) | <0.125 µg/mL | 0.5 µg/mL (≈ 0.437 µM) | 0.5 µg/mL (≈ 0.437 µM) | 16 µg/mL (≈ 14 µM) | −2.16 log10 CFU/mL | −3.21 log10 CFU/mL | −2.31 log10 CFU/mL | 0.5 µg/mL (≈ 0.437 µM)
6 | CCCCCCCC(=O)N[C@@H](CCN)C(=O)N[C@H](C(=O)N[C@@H](CN)C(=O)N[C@H]1CCNC(=O)[C@H]([C@@H](C)O)NC(=O)[C@H](CCN)NC(=O)[C@H](CCN)NC(=O)[C@H]([C@@H](C)O)NC(=O)[C@@H](CC(C)C)NC(=O)[C@H](CCN)NC1=O)[C@@H](C)O [Compound 33] (Octanoyl-[Dab]T[Dap][Dab][Dab][dL]T[Dab][Dab]T; lactam 4-C) | 0.5 µg/mL (≈ 0.443 µM) | 0.25 µg/mL (≈ 0.221 µM) | 0.5 µg/mL (≈ 0.443 µM) | 0.25 µg/mL (≈ 0.221 µM) | <0.125 µg/mL | <0.125 µg/mL | 1 µg/mL (≈ 0.885 µM) | <0.125 µg/mL | 0.5 µg/mL (≈ 0.443 µM) | 0.5 µg/mL (≈ 0.443 µM) | 8 µg/mL (≈ 7.08 µM) | −1.40 log10 CFU/mL | −2.80 log10 CFU/mL | −1.55 log10 CFU/mL | 0.5 µg/mL (≈ 0.443 µM)
7 | CCCCCCCC(=O)N[C@@H](CCN)C(=O)N[C@H](C(=O)N[C@@H](CN)C(=O)N[C@H]1CCNC(=O)[C@H]([C@@H](C)O)NC(=O)[C@H](CCN)NC(=O)[C@H](CCN)NC(=O)[C@H](C)NC(=O)[C@@H](CC(C)C)NC(=O)[C@H](CCN)NC1=O)[C@@H](C)O [Compound 35] (Octanoyl-[Dab]T[Dap][Dab][Dab][dL]A[Dab][Dab]T; lactam 4-C) | 0.5 µg/mL (≈ 0.455 µM) | 0.5 µg/mL (≈ 0.455 µM) | 0.5 µg/mL (≈ 0.455 µM) | 0.25 µg/mL (≈ 0.227 µM) | <0.125 µg/mL | 0.25 µg/mL (≈ 0.227 µM) | <0.125 µg/mL | <0.125 µg/mL | 0.5 µg/mL (≈ 0.455 µM) | 0.5 µg/mL (≈ 0.455 µM) | 16 µg/mL (≈ 14.6 µM) | −1.60 log10 CFU/mL | −3.12 log10 CFU/mL | −3.36 log10 CFU/mL | 0.5 µg/mL (≈ 0.455 µM)
8 | CCCCCCCC(=O)N[C@@H](CCN)C(=O)N[C@H](C(=O)N[C@@H](CN)C(=O)N[C@H]1CCNC(=O)[C@H]([C@@H](C)O)NC(=O)[C@H](CCN)NC(=O)[C@H](CCN)NC(=O)[C@H](CC)NC(=O)[C@@H](CC(C)C)NC(=O)[C@H](CCN)NC1=O)[C@@H](C)O [Compound 46] (Octanoyl-[Dab]T[Dap][Dab][Dab][dL][Abu][Dab][Dab]T; lactam 4-C) | 0.25 µg/mL (≈ 0.225 µM) | 0.25 µg/mL (≈ 0.225 µM) | 0.25 µg/mL (≈ 0.225 µM) | 0.25 µg/mL (≈ 0.225 µM) | <0.125 µg/mL | 0.25 µg/mL (≈ 0.225 µM) | <0.125 µg/mL | <0.125 µg/mL | 0.5 µg/mL (≈ 0.449 µM) | 0.5 µg/mL (≈ 0.449 µM) | 2 µg/mL (≈ 1.8 µM) | −1.56 log10 CFU/mL | −2.93 log10 CFU/mL | −2.53 log10 CFU/mL | 0.5 µg/mL (≈ 0.449 µM)
